Assays:
[1] = test system: Ba/F3 cells expressing FLT3-ITD-D835Y; experiment: Ba/F3 FLT3-ITD-D835Y subcutaneous xenograft; assay type: in vivo, mice; conditions: up to 7 days
Protocol: (§1) Once tumor growth had been confirmed, mice xenografted with MV4–11 cells were monitored for 28 days; mice xenografted with Ba/F3 cells expressing FLT3 mutations were monitored for 7 days. Tumor diameter was measured using a caliper, and tumor volume was determined by calculating the volume of an ellipsoid using the formula: length × width^2 × 0.5. Body weight was measured using a standard balance. Data are expressed as mean ± SEM from n = 6 mice/group (MV4–11) and n = 5 mice/group (Ba/F3).
(§2) After tumor establishment, mice were divided into groups such that the mean tumor volume was approximately equal in each group.

phosphorylated FLT3 = target: T1, phosphorylated FLT3 (Homo sapiens, UniProt P36888, INS600HVDFREYEYD); experiment: ELISA for phosphorylated FLT3 / total FLT3 in MV4-11 xenograft tumors; assay type: in vivo, mice
T1 construct: MV4–11 cells, which endogenously express FLT3-ITD; from tissue; host or cells: MV4-11 xenograft tumours from nude mice
T1 sequence (P36888 with tags, fused parts or gaps INS600HVDFREYEYD): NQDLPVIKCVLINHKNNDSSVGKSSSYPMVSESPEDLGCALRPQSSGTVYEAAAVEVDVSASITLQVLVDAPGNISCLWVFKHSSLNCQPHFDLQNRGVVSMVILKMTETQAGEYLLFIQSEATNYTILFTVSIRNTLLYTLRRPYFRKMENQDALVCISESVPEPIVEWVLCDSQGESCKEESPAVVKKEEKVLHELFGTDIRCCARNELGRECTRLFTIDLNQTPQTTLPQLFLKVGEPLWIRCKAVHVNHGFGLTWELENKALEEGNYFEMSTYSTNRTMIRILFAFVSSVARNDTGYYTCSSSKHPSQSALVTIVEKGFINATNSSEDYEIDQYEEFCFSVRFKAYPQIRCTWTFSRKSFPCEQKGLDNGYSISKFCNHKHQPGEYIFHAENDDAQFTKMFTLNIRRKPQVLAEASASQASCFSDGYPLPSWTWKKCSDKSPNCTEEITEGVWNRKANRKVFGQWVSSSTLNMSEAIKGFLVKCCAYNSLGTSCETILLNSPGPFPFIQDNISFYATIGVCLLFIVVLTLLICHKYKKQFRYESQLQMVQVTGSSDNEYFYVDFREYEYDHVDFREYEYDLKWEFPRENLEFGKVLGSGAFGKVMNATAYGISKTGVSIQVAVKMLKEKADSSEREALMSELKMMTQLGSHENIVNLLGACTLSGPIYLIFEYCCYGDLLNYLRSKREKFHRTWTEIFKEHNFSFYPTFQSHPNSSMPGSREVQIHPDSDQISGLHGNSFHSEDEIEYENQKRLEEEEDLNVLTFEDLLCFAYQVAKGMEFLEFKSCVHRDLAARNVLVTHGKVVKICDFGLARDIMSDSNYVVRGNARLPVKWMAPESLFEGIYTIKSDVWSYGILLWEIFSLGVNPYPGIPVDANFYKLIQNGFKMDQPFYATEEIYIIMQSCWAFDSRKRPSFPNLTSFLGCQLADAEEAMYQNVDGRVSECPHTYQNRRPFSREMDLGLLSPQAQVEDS
Protocol: Detailed protocols can be found in the online resource.
After 1 month, mice were divided into groups, with each group having approximately the same mean tumor volume.
MULTI-ARRAY® 96-well plates (Meso Scale Discovery, Rockville, MD) were coated with capture antibodies for phosphorylated FLT3 or total FLT3 (DuoSet® IC, R&D systems, Minneapolis, MN) and incubated overnight at 4°C with shaking. After washing with TBS-T, coated plates were blocked with 3% MSD® Blocker-A (Meso Scale Discovery) in TBS-T for 1 h at room temperature and then incubated with total protein lysates derived from MV4-11 xenografted tumors (500 μg/well for phosphorylated FLT3 and 20 μg/well for FLT3), overnight at 4°C. Following a wash step, anti-phosphotyrosine antibody (clone 4G10®, Biotin Conjugate [Millipore, Billerica, MA]) for the detection of phosphorylated FLT3 or the DuoSet® IC FLT3 detection antibody for total FLT3 were added to the plate and incubated for 2 h at room temperature. Wells were then washed and incubated with MSD® SULFO-TAG Labeled Streptavidin (Meso Scale Discovery) for 1 h at room temperature, followed by the addition of MSD® Read Buffer (Meso Scale Discovery). Electrochemiluminescent signals were measured using a SECTOR® imager (Meso Scale Discovery). Phosphorylation levels were normalized to total FLT3 levels in each group (3 mice/group except the point at 1 h after the administration of 1 mg/kg [2 mice]) relative to the mean value of the control group (5 mice/group). Data are reported as mean ± SEM.

MV4–11 tumors = experiment: MV4–11 subcutaneous xenograft antitumor activity; assay type: in vivo, mice; conditions: 28 days; for Mice with complete tumor regression: n = 6
Protocol: as §1, §2

p-ERK = experiment: Immunoblot of downstream FLT3 targets in MV4-11 cells; assay type: cell-based; conditions: Homo sapiens
Protocol: (§3) FLT3 immunoprecipitation and immunoblotting for all targets were performed following standard protocols. Detailed methods are provided in the online resource.
(§4) Cells were treated for 2 h prior to cell lysate preparation in RIPA buffer supplemented with phosphatase / protease inhibitors. Following sample preparation, protein lysates were electrophoresed on 7.5% gels and transferred to PVDF membranes.
(§5) All membranes were blocked using either Blocking One or Blocking One-P (Nacalai Tesque Inc., Kyoto, Japan) for 1 h prior to an overnight incubation with primary antibody. Membranes were incubated overnight at 4°C with one of the following antibodies: anti-FLT3 antibody (Abcam), anti-phosphorylated pan-tyrosine, anti-ERK, anti-phospho-ERK, anti-STAT5, anti-phospho-STAT5, anti-AKT, anti-phospho-AKT, anti-AXL, anti-phospho-AXL, or anti-actin. The membranes were then washed with 1× TBS Tween-20 (TBS-T) Buffer (Thermo Fisher Scientific Inc., Rockford, IL) and incubated with an appropriate HRP-linked secondary antibody (Cell Signaling Technology) for 1 h at room temperature. After a final wash, ECL Western Blotting Detection Reagent ECL-prime (GE Healthcare, Fairfield, CT) were applied to the membranes and signals were detected with a CCD camera (ImageQuant LAS4000; GE Healthcare). Signal intensity was then quantified using ImageQuant™ TL software (GE Healthcare). The study was performed once in triplicate, and the mean percentage of phosphorylated protein to total protein relative to that in vehicle-treated cells was calculated.

p-AKT = experiment: as above; assay type: cell-based; conditions: Homo sapiens
Protocol: as §3, §4, §5

p-STAT5 = experiment: as above; assay type: cell-based; conditions: Homo sapiens
Protocol: as §3, §4, §5

[2] = read-out: Kinase inhibition at the specified gilteritinib concentration (%), 0.1 nM, 2 h
[3] = read-out: Kinase inhibition at the specified gilteritinib concentration (%), 1 nM, 2 h
[4] = read-out: Kinase inhibition at the specified gilteritinib concentration (%), 10 nM, 2 h

With CCc1nc(C(N)=O)c(Nc2ccc(N3CCC(N4CCN(C)CC4)CC3)c(OC)c2)nc1NC1CCOCC1 [gilteritinib] the “Antitumor effect (tumor volume)” value ([1]; 10 mg/kg once-daily oral) was “showed antitumor efficacy”, the “Antitumor effect (tumor volume)” value ([1]; 30 mg/kg once-daily oral) was “induced tumor regression” and the “Phospho-FLT3 state in tumor” value (phosphorylated FLT3; single oral 1 mg/kg, by 24 h) was “returned to the pre-treatment level”. For the same compound, the “Decrease in phospho-FLT3 in tumor” value (phosphorylated FLT3; single oral 10 mg/kg, 24 h period) was “maintained throughout the 24 h experimental period”, the “Decrease of phosphorylated FLT3 in tumor compared with control” value (phosphorylated FLT3; within 1 h after single oral 1–10 mg/kg) was “approximately 40%” and the “Growth inhibition of MV4–11 tumors” value (MV4–11 tumors; 1 mg/kg/day oral once daily) was 63%. For the same compound, the “Growth inhibition of MV4–11 tumors” value (MV4–11 tumors; 3 mg/kg/day oral once daily) was 80%, the Tumor regression (MV4–11 tumors; 6 mg/kg/day oral once daily) was 93% and the “Mice with complete tumor regression” value (MV4–11 tumors; 6 mg/kg/day) was “Four of the six mice”. For the same compound, the Tumor regression (MV4–11 tumors; 10 mg/kg/day oral once daily) was 100%, the “Mice with complete tumor regression” value (MV4–11 tumors; 10 mg/kg/day) was “all six mice” and the activity at 0.0001 µM (p-ERK; [2]) was 54%. The activity at 0.001 µM (p-ERK; [3]) was 22%, the activity at 0.01 µM (p-ERK; [4]) was 1% and the activity at 0.0001 µM (p-AKT; [2]) was 65%. It also gave an activity at 0.001 µM (p-AKT; [3]) of 48%, an activity at 0.01 µM (p-AKT; [4]) of 9% and an activity at 0.0001 µM (p-STAT5; [2]) of 114%. For the same compound, the activity at 0.001 µM (p-STAT5; [3]) was 23% and the activity at 0.01 µM (p-STAT5; [4]) was 0%.

Reference: paper PMC5613053 (Investigational New Drugs, 2017)
